Structures are written as SMILES. Read-outs that look alike come from different tables or passages of the source. Bounds are passed on as bounds.

Here are results for 1 compound from patent publication US20260021051A1, “PHARMACEUTICAL FORMULATIONS” (VIVUS LLC, priority 2015, published 2026).

For series [1] the following is noted: cited from earlier work.
The conditions of series [2]: cited from earlier work. The source holds these as a separate data set.
A short description of series [3]: Solubility of tacrolimus in vehicles (shaken, filtered, HPLC). Format: physicochemical. As for the experimental part:
The solubility of tacrolimus was obtained in Maisine® 35-1, sesame oil, Miglyol® 812, Caspmul MCM EP, Labrafil M 2125 CS, peceol, Capryol 90, Lauroglycol FCC, Span 80, caprylic acid, Transcutol HP, Tween 80 (polysorbate 80), Kolliphor EL (Cremophor EL), labrasol, Vitamin E TPGS, PEG 400, propylene glycol, ethanol, Phosal 50 PG, triethylcitrate, and PEG 3350. In general, tacrolimus (˜15 mg) was added to approximately 250 mg of the vehicles. After the first addition of the API, the mixtures were shaken in a temperature-controlled vortex mixer for 24 hours at 25° C. (50° C. for Vitamin E TPGS and 60° C. for PEG 3350) then examined for solid residues. If no residue was observed, further addition of API was performed until the total API added was ˜55 mg. After the final addition, samples were further shaken at temperature for at least 24 h. After the incubation, each sample was examined visually for solid residues. Suspensions were filtered using a centrifuge tube with 0.45 μm PVDF membrane filter (Millipore Durapore®). The thick filtrate was weighed in to a 5-mL volumetric flask and diluted to mark with the HPLC diluent. Biphasic mixtures were vialed, spun on a centrifuge, and the clear solution was separated from the oily phase. All samples were prepared protected from light.

For `C=CC[C@@H]1/C=C(\C)C[C@H](C)C[C@H](OC)[C@H]2O[C@@](O)(C(=O)C(=O)N3CCCC[C@H]3C(=O)O[C@H](/C(C)=C/[C@@H]3CC[C@@H](O)[C@H](OC)C3)[C@H](C)[C@@H](O)CC1=O)[C@H](C)C[C@@H]2OC` (relative stereo) [Tacrolimus, [3S-[3R*[E(1S*,3S*,4S*)], 4S*,5R*,8S*,9E,12R*,14R*,15S*,16R*,18S*, 19S*,26-aR*]]-5,6,8,11,12,13,14,15,16,17,18,19,24,25,26a-hexadecahydro-5,19-dihydroxy-3-[2-(4-hydroxy-3-methoxycyclohexyl)-1-methylethenyl]-14,16-dimethoxy-4,10,12,18-tetramethyl-8-(2-propenyl)-15,19-epoxy-3H-pyrido [2,1-c][1,4]oxazacyclotricosine-1,7,20,21 (4H,23H)-tetrone, monohydrate], the solubility entry is given as “very soluble” in series [1] (in chloroform); “freely soluble” in series [1] (in ethanol); “very soluble” in series [1] (in methanol); “practically insoluble” in series [1] (in water); > 56 mg of API per gram of solvent in series [3] (in Capryol 90, 25° C.); > 56 mg of API per gram of solvent in series [3] (in Caspmul MCM EP, 25° C.). Moreover, the solubility in series [3] (in PEG 400, 25° C.) is recorded as > 56 mg of API per gram of solvent; in series [3] (in PEG 3350, 60° C.), > 56 mg of API per gram of solvent; in series [3] (in Phosal 50 PG, 25° C.) it was > 56 mg of API per gram of solvent; in series [3] (in Vitamin E TPGS, 50° C.) it was > 56 mg of API per gram of solvent; in series [3] (in caprylic acid, 25° C.), > 56 mg of API per gram of solvent; in series [3] (in ethanol, 25° C.), > 56 mg of API per gram of solvent. Also, the solubility in series [3] (in labrasol, 25° C.) is given as > 56 mg of API per gram of solvent; in series [3] (in propylene glycol, 25° C.) it was > 56 mg of API per gram of solvent; in series [3] (in triethylcitrate, 25° C.) it was > 56 mg of API per gram of solvent. Besides, the “time to peak concentration” value in series [2] (after oral administration) was 0.5 to 4 h. For the same compound, in series [2] (based on plasma), the “volume of distribution (VolD) based on plasma” value is 5 to 65 L/kg of body weight. Also, in series [2] (in vivo), the half-life for distribution was 54 min. Moreover, in series [2] (in vivo), the protein binding is listed as 75 to 99%. The “whole blood concentrations relative to plasma concentrations” value in series [2] (in vivo) is 12 to 67 times. Besides, the “bioavailability of the oral dosage form (range)” value in series [2] (oral) is given as 5 to 65%. The “mean bioavailability of the oral dosage form” value in series [2] (oral) is “about 27%”.
